Laboratory results published in patent US12011450B2, “Polyethylene glycol-conjugated glucocorticoid prodrugs and compositions and methods thereof” (Board of Regents of the University of Nebraska, priority 2015, dated 2024).
“Also recorded” adds a separate entry of the source.

Columns and labels:
NZB/W F1 mice [1] = details: mouse, in vivo
Excerpt: Therefore, we monitored peripheral white blood cell (WBC) counts and during the experimental time course.

NZB/W F1 mice [2] = details: mouse, in vivo; remark: listed apart in the source
Excerpt: Therefore, at necropsy, we determined the mass of the adrenal glands in each mouse.

anti-dsDNA IgG = test: Serum anti-dsDNA IgG level; assay type: in vivo, mice; details: 4 and 8 weeks post-treatment initiation
NZB/W F1 mice kidneys = test: Histological evaluation of PAS-stained kidney sections; assay type: in vivo; details: 2-month treatment end point
Excerpt: The tissues were formalin-fixed, sectioned (3 μm) and periodic-acid schiff (PAS) stained for visual examination and 4 point grading by a pathologist, who is blind to the group design.
The periodic-acid schiff (PAS) stained kidney sections were also graded by a histopathologic score system with a 4-point scale.

NZB/W F1 mice [3] = details: mouse, in vivo; remark: listed apart in the source
MCP-1, IFN-β, IFN-γ = test: Serum inflammatory cytokine/chemokine analysis; assay type: in vivo, mice; details: end of 2-month treatment
Description: Their urine protein level was monitored weekly using Albustix Reagent Strips (Siemens Healthineers). Only mice with established nephritis, as evidenced by sustained albuminuria (≥100 mg/dL) over 2 weeks, were enrolled in the study. […] The Dex treatment (dexamethasone 21-phosphate disodium, 1.32 mg/kg, containing 1.00 mg/kg of dexamethasone, n=11) was given as daily i.v. injection. All treatments continued for 8 weeks. The body weight and proteinuria level of the animals was monitored on a weekly basis. Peripheral blood was collected from saphenous vein every 4 weeks for serum analyses. […] The surviving mice were monitored for an additional two weeks after the last treatment. The mice were then euthanized by CO2 asphyxiation, with all major tissues and organs isolated, weighted and processed at necropsy.
For inflammatory cytokine/chemokine analysis, the data obtained were log 2 transformed to make them more normally distributed. The mixed effects model with AR(1) correlation among repeated measures over time of the same animal were used to fit the log transformed cytokine expression values for each cytokine separately. […]

C[C@@H]1C[C@H]2[C@@H]3CCC4=CC(=O)C=C[C@]4(C)[C@@]3(F)[C@@H](O)C[C@]2(C)[C@@]1(O)C(=O)COP(=O)([O-])[O-].[Na+].[Na+] [Dex, dexamethasone 21-phosphate disodium]
peripheral white blood cell (WBC) counts (NZB/W F1 mice [1]): lower than the saline group, even though there was no significant difference
adrenal gland mass (NZB/W F1 mice [2]): significantly lower than the PEG-DiDex group
serum anti-dsDNA IgG level (anti-dsDNA IgG): significantly reduce; also recorded: significantly reduced the antibody level
glomeruli with histological abnormities (NZB/W F1 mice kidneys): 40%
mice graded as severe glomerulonephritis (scored 3 and 4 points) (NZB/W F1 mice kidneys; 4-point scale): more than 40%
total serum IgG level (NZB/W F1 mice [3]): significant drop of serum IgG value
change in serum MCP-1, IFN-β and IFN-γ values (MCP-1, IFN-β, IFN-γ): did not induce the improvement
